SMILES strings stand for the structures. “Also recorded” adds a separate entry of the source.

2 molecules from patent publication US20240041813A1, “VERY-LONG-CHAIN POLYUNSATURATED FATTY ACIDS, ELOVANOID HYDROXYLATED DERIVATIVES, AND METHODS OF USE” (priority 2020, published 2024) can be followed below.

In experiment [1] the test system is ACE2. The experiment can be described thus: Rat cornea alkali burn: ACE2 abundance by Jess capillary-based Western Blot. It counts as in vivo. The settings on record: rat cornea after alkali burn; eye drops 20 μl/eye, 3 times/day for 14 days; day 14. The text has this: Sprague-Dawley rats (8-week-old male) were obtained from Charles River Laboratories (Wilmington, MA, USA) and kept at the Animal Care of the Neuroscience Center of Excellence, Louisiana State University Health (LSUH; New Orleans, LA, USA). All animals were handled in compliance with the guidelines of the ARVO Statement for the Use of Animals in Ophthalmic and Vision Research, and the experimental protocol was approved by the Institutional Animal Care and Use Committee (IACUC) at LSUH.
(§1) The rats were anesthetized by intraperitoneal injection of Ketamine (50-100 mg/kg) plus xylazine (5-10 mg/kg). A 4 mm diameter filter paper soaked in 1 N NaOH was placed on the central cornea of the right eye for 45 seconds, and then the eye was thoroughly washed with […] of saline. After injury, the rats were randomly divided into five treatment groups: vehicle; lipoxin A4 (LXA4) from Cayman Chemical (Ann Arbor, MI, USA); R,R Resolvin D6 isomer (RvD6i), R,R neuroprotection D (NPD1), and elovanoid (ELV)-N32. All lipid solutions were prepared at the final concentration of […] using PBS with the minimal contamination of ethanol by evaporating the ethanol and immediately dissolve the lipids in PBS, then vortex well for 2 min. Topical administration (20 μl) was done 3×/day for 14 days. The experiments were double-blinded with the lipid mediators coded during the whole experiments. At the end of the study, when all data was collected, the code was opened.
Briefly, samples were lysed with RIPA buffer containing a protease inhibitor cocktail (Sigma, Cat. P8340). Cell debris was removed after 10 min centrifugation at 16,000×g. Protein concentration was determined by BCA assay (Thermo Fisher Scientific, Cat. 23225) and 1 μg used/reaction. Fluorescent Master Mix was mixed with 40 mM DTT, and the mixture was added to each sample to provide a denaturing and reducing environment. Samples were heated at 95° C./5 min, and 3 μL of each sample were loaded. The 12-230 kDa cartridge (Protein Simple—#SM-W004) was used. Primary antibodies were diluted in antibody diluent 2 buffer (Protein Simple, #042-203) while the working solution of secondary antibodies was provided by the company (Protein Simple, #042-206). Then, the filled plate was spin-down for 10 min at 1,000×g to remove bubbles and plate, and capillaries were loaded into the Jess machine. For data analysis, the area of spectra that matched the molecular weight of the target protein was used. To reduce the coefficient variant, we analyzed the GAPDH for each capillary. The ratio of the targeted protein to GAPDH was used for statistical comparisons. For visualization, the artificial lanes generated from spectra volume was used.
Background: In western blotting, separated proteins are transferred to a membrane and probed.

Experiment [2] relates to Alexa 594-RBD. In kind it is in vivo. The settings on record: rat cornea after alkali burn; 14 days treatment; Alexa 594-RBD 1 μg/eye, 3 times at day 15, examined a day later.
The test system of experiment [3] is ACE2. As to the kind of experiment: Rat cornea alkali burn: corneal RNA-seq, Ace2 gene expression. It counts as in vivo. As to conditions: rat cornea after alkali burn; eye drops 3 times/day for 14 days; RNA-seq day 14. Here is the method: as §1
(§2) Injured corneas (n=5/condition) were harvested and homogenized with TRIzol (Thermo Fisher Scientific) on ice with a glass Dounce homogenizer. RNA sequencing was performed as described^14. Briefly, after mRNA extraction and determination of purity, 8 ng of total RNA was reverse transcribed, and total cDNAs were amplified using ISPCR primer, and the library was made with the Nextera XT DNA library preparation kit (Illumina, San Diego, CA, USA). The libraries were pooled with the same molarity and sequenced using the NextSeq 500/550 High Output Kit v2 (75 cycles, Illumina). After demultiplexing, RNA-seq data were aligned to the Rattus Norvegicus reference genome (.ensembl.org/pub/release-98/fasta/rattus_norvegicus/dna/) using the Subread package v2.0.1 alignment function39. The BAM files for sequencing data alignment were counted using featureCounts function of Subread tool^40 using the macOS Catalina. The raw count data were subjected to differential gene expression analysis using DESeq2 package for R^41 with the vehicle group as reference. The adjusted p-values were named as the false discover rate (FDR).

A further experiment has as its system injured rat cornea. As to the kind of experiment: Rat cornea alkali burn: corneal RNA-seq, cytokine storm, NFkB/inflammation, senescence, integrin and protease genes. It counts as in vivo. The settings on record: rat cornea, RNA-seq 14 days after injury. As to the method: as §1, §2
Experiment [4] concerns ACE2. As to the kind of experiment: HCEC challenged with IFNγ: Ace2 gene expression. It counts as cell-based, human. As to conditions: IFNγ 100 ng/ml. The text has this: (§3) All experiments with human corneal epithelial cells were approved by the Institutional Review Board of LSUHNO and conducted in accordance with NIH guidelines. HCEC were kept frozen in the laboratory at passage 2544. Cells were maintained in keratinocyte growth (KGM) medium containing the keratinocyte basal medium (KBM) (Lonza: CC-3101) supplemented with bovine pituitary extract (BPE), hEGF, Insulin, Hydrocortisone and Gentamicin Sulfate-Amphotericin (GA-1000) (Lonza, Cat. CC-4131). For all experiments, cells were seeded at 30,000 cells/cm2.
(§4) For screening the stimulation of receptor ACE2 by cytokines, the HCEC were cultured with KGM until 50-60% confluence. Then, changed to KBM containing IL-1β, -2, -6 and 8, IFN-α, -ε, and -γ or TNFα at 1, 10 or 100 ng/ml. The cells were harvested after 6 hours and analyze for the gene expression of Ace2. In other experiments, HCEC were stimulated with IFNγ, and thereafter, lipid mediators were added. For the Alexa 594-conjugated RBD binding, IFNγ was used as a cytokine trigger. At 12 hours after cytokine exposure and lipid mediator treatments, […] of labeled RBD was added to the medium. The evaluation of RBD binding was conducted 24 hours after.
Quantitative PCR was performed with the Biomark HD system (Fluidigm, San Francisco, CA, USA). […]

A further experiment deals with Cdkn2a (p16INK4a). The experiment can be described thus: HCEC challenged with IFNγ: Cdkn2a gene expression. It counts as cell-based, human. The settings on record: IFNγ 100 ng/ml.
From the text: as §3, §4
Quantitative PCR was performed with the Biomark HD system (Fluidigm, San Francisco, CA, USA). Briefly, 200 ng of RNA was reverse-transcribed using iScript Reverse Transcription Supermix (Bio-Rad), and the cDNA was pre-amplified using the PreAmp Master Mix (PN 100-5580; Fluidigm). The cDNA was then subjected to Exonuclease I treatment and diluted 5 times in TE Buffer. The qPCR reaction mixture and primer reaction mixture were made and loaded into the Biomark 96.96 IFC™ (Integrated Fluidic Circuit). The enzyme reaction was mixed using Juno™ Controller (Fluidigm) and run using the cycling program of (i) 70° C. for 40 minutes followed by 60° C. for 30 seconds, (ii) hot start for 1 minute at 95° C., (iii) 30 cycles of denaturation at 96° C. for 5 seconds, and annealing at 60° C. for 20 seconds, and (iv) melting curves between 60° C. and 95° C. with 1° C. increments/3 seconds. The Ct value of target genes was normalized to the house-keeping genes Gapdh, Hprt1, and Tfrc before normalized to the vehicle group. Relative fold changes from the ΔΔCT calculation was used to make the graph.

Experiment [5] relates to Alexa 594-RBD. As to the kind of experiment: HCEC challenged with IFNγ: Alexa 594-RBD binding (unbiased imaging, Imaris). In kind it is cell-based, human. The settings on record: IFNγ 100 ng/ml and lipid mediators 200 nM for 12 h, images 24 h after RBD. Here is the method:
as §4
Twenty-four hours after Alexa 594-RBD was added to the HCEC, the cells were washed with PBS (3×/5 min) and fixed with 4% paraformaldehyde for 30 minutes at RT. The HCEC were washed 2× with PBS and stained with Hoechst 33342 Solution (ThermoFisher Scientific, Cat. 62249) for 30 minutes at RT. Next, the HCEC were washed 2× with PBS before imaging. For unbiased data collection, 7 designated areas were defined in each well (FIG. 63) and captured with an Olympus FV3000 confocal laser scanning microscopy under “Multi Area Time Lapse” (MATL) mode. All images were acquired with the same parameters and Z-section range, converted and inputted in the Imaris software version 9.5.1. The threshold for the control images was defined by the HCEC without Alexa 594-conjugated RBD of S protein and using it as a threshold filter for the Imaris batch image processing function. The sum of total intensity for each image was used to evaluate the binding efficiency.

Experiment [6] relates to human corneal epithelial cells (HCEC). The experiment can be described thus: HCEC challenged with IFNγ: SASP secretome (β-Gal staining). In kind it is cell-based. As to conditions: HCEC 24 h after IFN-γ challenge.
Experiment [7] relates to receptor-binding domain (RBD) of the SARS-CoV-2 spike. In kind it is cell-based, human.
For another experiment, the system named is ACE-2 receptor. The experiment can be described thus: ACE-2 protein abundance by Jess capillary western in human alveoli in culture. It counts as cell-based. The settings on record: effect dependent on addition of IL-1b. The text has this:
The Simple Protein platform Jess allows running a protein mixture in a capillary system that also serves as a probing matrix for the antibodies. This platform obviates the need to transfer the size-separated proteins onto a membrane with the consequent loss of sample. The sample amount that can be run in Jess is several times smaller than that required for Western blots. Therefore, high throughput is facilitated in cell cultures. The antibodies to this protein have been validated in our laboratory.
c.1.b. Protein abundance using Jess technology. The Simple Protein platform Jess allows running a protein mixture in a capillary electrophoretic system as a probing matrix for the antibodies (we refer to western blot as “Jess WB” here). This platform obviates the need to transfer the size-separated proteins onto a membrane with a potential loss of sample. The sample size run in Jess is several times smaller than that for classical WB. (400 ng protein/capillary column vs. 10 or more μg for classical WB). The proteins we assess will include ACE2, Furin, ADAM17, DPP4, TMPRSS2, protein surfactant D, and Cathepsin L. In addition, senescence and SASP proteins will also be analyzed. […]
ACE2 Protein abundance using Jess technology. […] Soluble protein concentration was determined by BCA assay (Thermo Fisher Scientific, Cat. 23225) and 0.4 μg used/reaction. […]

Consider `CC/C=C\C[C@@H](O)/C=C/C=C\C/C=C\C/C=C\C=C\[C@H](O)CCC(=O)O` [RvD6i], for which, in the experiment with ACE2 [1], the “ACE2 abundance (protein, normalized to GAPDH)” value is listed as “decrease”. Besides, in the experiment with Alexa 594-RBD [2], the “binding of Alexa 594-RBD to injured cornea” value is “decrease; also recorded: counteracted”. Besides, in the experiment with ACE2 [3], the “Ace2 gene expression levels” value was “decrease”. For the same molecule, in the experiment on injured rat cornea, the “51 injury-upregulated genes (cytokines, SASP, NFkB inflammatory)” value is “most are inhibited”; the “Il6 and Vegfa expression” value is on record as “reduced”; the “integrin gene expression (Itga5 and Itgb 1)” value is “significantly decreased; also recorded: decrease”; the “transcriptomic profile in PCA plot relative to control cornea” value is on record as “nearest to the normal cornea”. Further, the “IFNγ-triggered Ace2 activation” value with ACE2 [4] is on record as “markedly attenuated; also recorded: suppressed”. The Cdkn2a activation entry with Cdkn2a (p16INK4a) is “decrease”. The “IFNγ-stimulated Alexa 594-RBD binding” value in the experiment on Alexa 594-RBD [5] is “attenuated”. The “senescence programming genes and SASP secretome activation (β-Gal)” value in [6] is “blocked; also recorded: suppressed”.
`CC/C=C\CC(O)\C=C/C=C/C=C/C(O)C/C=C\C/C=C\CCCCCCCCCCCCCCC(=O)O` [ELV-N34, (16Z,19Z,22R,23E,25E,27Z,29S,31Z)-22,29-dihydroxytetra-triaconta-16,19,23,25,27,31-hexaenoic acid]: the “RBD protein internalization (RBD located below the membrane line)” value in experiment [7] is “decrease”. For the same molecule, the “expression of the ACE-2 receptor (protein abundance, Jess)” value in the experiment with ACE-2 receptor is listed as “downregulate”.
